Several values for one entry are separate records, joined by “and”; a condition that tells them apart may be missing. Identical values can stand only once.
Tests used:
Format in all cases: in vivo
[1] = system: STZ-induced diabetic C57BL/6 mice; experiment: Oral glucose tolerance test (OGTT) on Day 28, STZ-induced diabetic C57BL/6 mice; design: OGTT blood glucose AUC: unit: mM·min
Experimental: The mice fasted for about 6 hours were orally administrated with glucose solution (1 g/kg). Blood glucose was measured at indicated time points.
(§1) After one-week acclimation, the mice were fed with high fat diet with 60 kcal % fat (D12492, Research Diets) for 3 weeks before STZ injection. Diabetic model was induced with 5 consecutive days of multiple low-dose STZ injection (50 mg/kg, intraperitoneally; i.p.). During modeling period, the mice were fasted for 4 hours before STZ treatment each day. The STZ solution (5 mg/ml) was freshly prepared in 0.1 M sodium citrate buffer (pH 4.5) before use and injected within 10 minutes of preparation. Seven days later, the mice with non-fasted blood glucose between 16.7 mM and 27.7 mM were selected and randomized into different groups by blood glucose level and body weight. At 9 am (T=0 minute) of Day 1, the mice were subcutaneously administrated with vehicle, insulin glargine, beinaglutide, or a mixture of insulin glargine and beinaglutide, which were mixed immediately before injection (Table 3). After first injection, tail blood glucose levels were measured at various intervals after injection, at 15 minutes, 30 minutes, 60 minutes, 120 minutes, 180 minutes, and 240 minutes, respectively. Subsequently, the mice of four groups (No. 1, No. 2, No. 4, and No. 6) continued to receive multiple dosing for 4 weeks. Body weight was measured twice per week. On day 28, after blood glucose measurement, the mice were fasted for 6 hours from 9 am, followed by an oral glucose tolerance test (glucose solution: 1 g/kg, 10 ml/kg). The blood glucose was monitored at 0 minute (pre-glucose loading), 15 minutes, 30 minutes, 60 minutes and 120 minutes after glucose loading.

[2] = system: STZ-induced diabetic C57BL/6 mice; experiment: Blood glucose after single dosing in STZ-induced diabetic C57BL/6 mice (Example 2); conditions: for blood glucose 15 min / blood glucose 30 min / blood glucose 60 min / blood glucose 120 min / blood glucose 180 min / blood glucose 240 min / AUC(0-120 min) of blood glucose / blood glucose 0 min: single s.c. dose; for blood glucose 0 min: pre-dose
Experimental: Animals: Male C57BL/6 mice (n=70) were purchased from Shanghai Jihui Laboratory Animal Care Co., Ltd. Upon arrival, the mice were housed in an animal facility at Shanghai University of Medicine & Health Sciences, under constant temperature (20-24° C.) and humidity (40-70%). Housing was provided at 12:12-hour light-dark cycle.
Active agents: Insulin glargine was obtained from Sanofi and stored at a temperature of 2-8° C. Beinaglutide having the sequence of […](SEQ ID NO: 1) was obtained from Benemae (beinaglutide injection, 2 mg/mL) and stored at 2-8° C.
as §1

[3] = Body weight change during 4-week multiple dosing in STZ-induced diabetic C57BL/6 mice; conditions: for body weight change Day 0 / body weight change Day 4 / body weight change Day 7 / body weight change Day 8 / body weight change Day 10 / body weight change Day 12 / body weight change Day 14 / body weight change Day 16 / body weight change Day 18 / body weight change Day 20 / body weight change Day 22 / body weight change Day 24 / body weight change Day 26 / body weight change Day 28: IGlar 5 U/kg s.c., 1st week bid, 2nd to 4th week tid; for body weight change Day 0: baseline
Experimental: as §1

[4] = system: STZ-induced diabetic C57BL/6 mice; experiment: Fasting blood glucose on Day 28 after 6 hours fasting, STZ-induced diabetic C57BL/6 mice; conditions: Day 28, 6 hours fasting, IGlar 5 U/kg multiple dosing
Experimental: as §1, with “Subsequently, the mice of four groups (No. 1, No. 2, No. 4, and No. 6) continued to receive multiple dosing for 4 weeks.” left out, “On day 28, after blood glucose measurement, the mice were fasted for 6 hours from 9 am, followed by an oral glucose tolerance test (glucose solution: 1 g/kg, 10 ml/kg).” left out
On Day 28, the fasting blood glucose was measured after 6 hours fasting.

[5] = Insulin glargine 5 U/kg, group MEAN, n=6
[6] = Insulin glargine 5 U/kg, group MEAN, n=6, listed as IGlar
[7] = Insulin glargine 5 U/kg, individual animal
[8] = Insulin glargine 10 U/kg, group MEAN, n=6
[9] = Insulin glargine 10 U/kg, group MEAN, n=6, listed as IGlar
[10] = Insulin glargine 10 U/kg, individual animal

insulin glargine
blood glucose based on the AUC during OGTT (in words) ([1]; Day 28, glucose 1 g/kg oral, Bei 0.1 mg/kg, IGlar 5 U/kg, or IGlar 5 U/kg & Bei 0.05 mg/kg multiple dosing): significantly reduced blood glucose based on the AUC | OGTT blood glucose 0 min, MEAN ([1]; IGlar 5 U/kg, Day 28, group mean, 0 min): 13.98 mM | OGTT blood glucose AUC, MEAN ([1]; IGlar 5 U/kg, Day 28, group mean, 0-120 min): 2390.25 | OGTT blood glucose 15 min, MEAN ([1]; IGlar 5 U/kg, Day 28, group mean, 15 min): 27.90 mM | OGTT blood glucose 30 min, MEAN ([1]; IGlar 5 U/kg, Day 28, group mean, 30 min): 24.60 mM | OGTT blood glucose 60 min, MEAN ([1]; IGlar 5 U/kg, Day 28, group mean, 60 min): 20.04 mM | OGTT blood glucose 120 min, MEAN ([1]; IGlar 5 U/kg, Day 28, group mean, 120 min): 13.72 mM | OGTT blood glucose 0 min ([1]; IGlar 5 U/kg, Day 28, individual animals, 0 min): 16.1 mM and 9.4 mM and 7.6 mM and 15.9 mM and 20.9 mM | OGTT blood glucose AUC ([1]; IGlar 5 U/kg, Day 28, individual animals, 0-120 min): 2820.0 and 2205.0 and 2178.8 and 2133.0 and 2614.5 | OGTT blood glucose 15 min ([1]; IGlar 5 U/kg, Day 28, individual animals, 15 min): 33.3 mM and 25.4 mM and 24 mM and 25.9 mM and 30.9 mM | OGTT blood glucose 30 min ([1]; IGlar 5 U/kg, Day 28, individual animals, 30 min): 27.9 mM and 23.4 mM and 23.1 mM and 23.3 mM and 25.3 mM | OGTT blood glucose 60 min ([1]; IGlar 5 U/kg, Day 28, individual animals, 60 min): 23 mM and 18.6 mM and 19 mM and 16.4 mM and 23.2 mM | OGTT blood glucose 120 min ([1]; IGlar 5 U/kg, Day 28, individual animals, 120 min): 17.9 mM and 13 mM and 12.9 mM and 12.1 mM and 12.7 mM | blood glucose 15 min [2, 5]: 25.35 mM | blood glucose 30 min [2, 5]: 16.95 mM | blood glucose 60 min [2, 5]: 6.07 mM | blood glucose 120 min [2, 5]: 7.02 mM | blood glucose 180 min [2, 5]: 11.80 mM | blood glucose 240 min [2, 5]: 18.83 mM | AUC(0-120 min) of blood glucose ([2]; Insulin glargine 5 U/kg, group MEAN, n=6, in mM·min (unit assumed)): 2864 | AUC(0-120 min) of blood glucose [2, 6]: significant reduction of blood glucose | blood glucose 60 min [2, 6]: 6.07 ± 0.43 mM | blood glucose 15 min [2, 7]: 23.4 mM and 25.7 mM and 26.6 mM and 24.1 mM and 26.3 mM and 26 mM | blood glucose 30 min [2, 7]: 19.7 mM and 8.7 mM and 17.9 mM and 16.6 mM and 21.2 mM and 17.6 mM | blood glucose 60 min [2, 7]: 6.4 mM and 6.2 mM and 5.9 mM (2×) and 5.4 mM and 6.6 mM | blood glucose 120 min [2, 7]: 5.6 mM and 7.5 mM and 12.2 mM and 4.4 mM and 7.8 mM and 4.6 mM | blood glucose 180 min [2, 7]: 10.8 mM and 14.1 mM and 17.2 mM and 8.9 mM and 11.5 mM and 8.3 mM | blood glucose 240 min [2, 7]: 18.8 mM and 23.2 mM and 23.5 mM and 16.7 mM and 17.7 mM and 13.1 mM | AUC(0-120 min) of blood glucose ([2]; Insulin glargine 5 U/kg, individual animal, in mM·min (unit assumed)): 2864 and 3072 and 3731 and 2489 and 3047 and 2409 | blood glucose 0 min [2, 5]: 27.55 mM | blood glucose 0 min [2, 7]: 31.1 mM and 29.3 mM and 25.9 mM and 28.3 mM and 25.3 mM and 25.4 mM | blood glucose 15 min [2, 8]: 26.68 mM | blood glucose 30 min [2, 8]: 14.68 mM | blood glucose 60 min [2, 8]: 7.65 mM | blood glucose 120 min [2, 8]: 5.50 mM | blood glucose 180 min [2, 8]: 9.95 mM | blood glucose 240 min [2, 8]: 20.18 mM | AUC(0-120 min) of blood glucose ([2]; Insulin glargine 10 U/kg, group MEAN, n=6, in mM·min (unit assumed)): 3986 | AUC(0-120 min) of blood glucose [2, 9]: significant reduction of blood glucose | blood glucose 120 min [2, 9]: 5.50 ± 2.74 mM | blood glucose 180 min [2, 9]: 9.95 ± 5.22 mM | blood glucose 15 min [2, 10]: 24.4 mM (2×) and 23.6 mM and 30.3 mM and 29 mM and 28.4 mM | blood glucose 30 min [2, 10]: 17.3 mM and 10.6 mM and 3.1 mM and 11.1 mM and 26.1 mM and 19.9 mM | blood glucose 60 min [2, 10]: 9.6 mM and 5 mM and 7 mM and 5.2 mM and 13.3 mM and 5.8 mM | blood glucose 120 min [2, 10]: 10.8 mM and 4.2 mM and 5.4 mM and 3 mM and 5.3 mM and 4.3 mM | blood glucose 180 min [2, 10]: 19.3 mM and 9.4 mM and 6.1 mM and 5.8 mM and 6.7 mM and 12.4 mM | blood glucose 240 min [2, 10]: 26.4 mM and 16.1 mM and 15.4 mM and 14.3 mM and 19.3 mM and 29.6 mM | AUC(0-120 min) of blood glucose ([2]; Insulin glargine 10 U/kg, individual animal, in mM·min (unit assumed)): 3986 and 2308 and 2209 and 1991 and 3146 and 3254 | blood glucose 0 min [2, 8]: 27.77 mM | blood glucose 0 min [2, 10]: 26.7 mM and 25.5 mM and 29 mM and 24.6 mM and 30.2 mM and 30.6 mM | blood glucose after a single administration (in words) ([2]; STZ-induced hyperglycemic mice, single s.c. administration): significantly reduced blood glucose | body weight change Day 0 ([3]; group MEAN): 0.0 g | body weight change Day 0 ([3]; individual animal): 0.0 g | body weight change Day 4 ([3]; group MEAN): 0.0 g | body weight change Day 7 ([3]; group MEAN): 0.7 g | body weight change Day 8 ([3]; group MEAN): 0.7 g | body weight change Day 10 ([3]; group MEAN): 0.8 g | body weight change Day 12 ([3]; group MEAN): 0.7 g | body weight change Day 14 ([3]; group MEAN): 1.2 g | body weight change Day 16 ([3]; group MEAN): 1.3 g | body weight change Day 18 ([3]; group MEAN): 1.6 g | body weight change Day 20 ([3]; group MEAN): 1.7 g | body weight change Day 22 ([3]; group MEAN): 1.7 g | body weight change Day 24 ([3]; group MEAN): 1.8 g | body weight change Day 26 ([3]; group MEAN): 2.4 g | body weight change Day 28 ([3]; group MEAN): 2.4 ± 0.4 g and 2.4 g | body weight change Day 4 ([3]; individual animal): -0.2 g and 0.0 g and 0.6 g and -0.1 g and 0.3 g and -0.4 g | body weight change Day 7 ([3]; individual animal): 0.2 g and 0.7 g and 1.0 g (2×) and 0.8 g and 0.5 g | body weight change Day 8 ([3]; individual animal): 0.0 g and 1.1 g and 0.6 g and 0.7 g and 1.3 g and 0.4 g | body weight change Day 10 ([3]; individual animal): 0.1 g and 1.0 g (2×) and 0.7 g and 1.1 g and 0.8 g | body weight change Day 12 ([3]; individual animal): 0.2 g and 0.9 g and 0.4 g and 0.8 g and 1.3 g and 0.6 g | body weight change Day 14 ([3]; individual animal): 0.3 g and 1.3 g and 0.8 g (2×) and 2.0 g and 1.9 g | body weight change Day 16 ([3]; individual animal): 0.7 g and 1.3 g and 1.7 g (2×) and 1.0 g | body weight change Day 18 ([3]; individual animal): 0.9 g and 1.2 g and 2.4 g (2×) and 1.3 g | body weight change Day 20 ([3]; individual animal): 1.0 g (2×) and 1.9 g and 2.3 g and 2.5 g | body weight change Day 22 ([3]; individual animal): 1.2 g and 1.7 g and 2.1 g and 2.6 g and 1.0 g | body weight change Day 24 ([3]; individual animal): 1.3 g and 1.9 g and 2.3 g and 2.7 g and 0.6 g | body weight change Day 26 ([3]; individual animal): 1.5 g and 2.2 g and 3.3 g and 3.7 g and 1.2 g | body weight change Day 28 ([3]; individual animal): 1.7 g and 2.3 g and 2.9 g and 3.8 g and 1.4 g | weight gain on Day 28, IGlar alone vs combo (in words) ([3]; IGlar 5 U/kg vs IGlar 5 U/kg & Bei 0.05 mg/kg, 4-week treatment): induced weight gain significantly higher than the combinational therapy of beinaglutide and insulin glargine | fasting blood glucose, Mean ([4]; group mean): 14.0 ± 2.43 mM and 14.0 mM | fasting blood glucose ([4]; individual animal): 16.1 mM and 9.4 mM and 7.6 mM and 15.9 mM and 20.9 mM

Source: patent US20230092769A1 (SHANGHAI BENEMAE PHARMACEUTICAL CORPORATION, priority 2020, published 2023)
